# Results from patent US7795305B2, “CDDO-compounds and combination therapies thereof” (Board of Regents, The University of Texas System, priority 2000, dated 2010).
# Legend:
# D9 cells, vector control = assay: Annexin V / cell number in D9 vector control cells; format: cell-based
# Description: (§1) Annexin V staining. Cells were washed in phosphate-buffered saline (PBS) and resuspended in 100 μl of binding buffer containing Annexin V (Roche Diagnostic Corporation, Indianapolis, Ind.). Cells were analyzed by flow cytometry after the addition of propidium iodide (PI). Annexin V binds to those cells that express phosphatidylserine on the outer layer of the cell membrane, and PI stains the cellular DNA of those cells with a compromised cell membrane. This allows for live cells (unstained with either fluorochrome) to be discriminated from apoptotic cells (stained only with annexin V) and necrotic cells (stained with both annexin and PI).
# To characterize the correlation between PPARγ and caspase activation, caspase-3 levels in D9 cells transfected with wt-PPARγ were analyzed. Six different single cell-derived clones were treated with 3 μM CDDO or vehicle controls for 5 hrs. Caspase-3 cleavage was analyzed by Western blot. A decrease in pro-caspase-3 with appearance of the cleaved product was readily observed in all clones. The degree of cleavage was higher in PPARγ-transfected than in vector control cells that express endogenous PPARγ. […] These changes correlated with plasma membrane changes: vector control=47.0% annexin V-positive cells; wt-PPARγ-transfected cells=73.3±1.1% annexin V (+), n=6. […] PPARγ-transfected cells were also more sensitive to PPARγ-ligand 15d-PGJ2 (41.00% vs 16.0% annexin (+) cells at 3 μM).
# To characterize the correlation between PPARγ and caspase activation, caspase-3 levels in D9 cells transfected with wt-PPARγ were analyzed. Six different single cell-derived clones were treated with 3 μM CDDO or vehicle controls for 5 hrs. Caspase-3 cleavage was analyzed by Western blot. A decrease in pro-caspase-3 with appearance of the cleaved product was readily observed in all clones. The degree of cleavage was higher in PPARγ-transfected than in vector control cells that express endogenous PPARγ. […] These changes correlated with plasma membrane changes: vector control=47.0% annexin V-positive cells; wt-PPARγ-transfected cells=73.3±1.1% annexin V (+), n=6. […]
# NB4 cells = assay: Annexin V staining; format: cell-based, human
# Description: as §1
# Mechanisms of CDDO-induced apoptosis in leukemia cell lines and in primary AML samples were also determined. The involvement of the death receptor/Fas pathway was studied in NB4 cells. Treatment with 0.5 μM CDDO induced cell surface Fas/CD95 expression at 48 hours (MFI 34.8 vs 24.8 in DMSO-treated cells and 26 in untreated control). At this concentration, 22.3% of cells were annexin V positive compared with 11.4% in DMSO-controls. At 1 μM, 56.3% of cells were apoptotic. Similarly, 1 μM CDDO induced Fas expression in 7/12 AML CD34+ cells (MFI, 22.3±3.5 in DMSO-controls, 40±4.3 in CDDO-treated CD34+ cells, p<0.01).
# [1] = test system: Bcl-2 mRNA in HL-60 cells; assay: Bcl-2 mRNA by quantitative TaqMan PCR; format: cell-based, human; details: 72 hours
# Description: (§2) The effect of CDDO on the Bcl-2 mRNA expression was analyzed utilizing quantitative TaqMan PCR. In HL-60 cells, Bcl-2 mRNA decreased at 24 hrs and decreased further (>than 10-fold) at 72 hours; in NB4 cells, a small decrease of Bcl-2 mRNA (2-fold) was observed only at 72 hrs (FIG. 9).
# Bcl-2 mRNA in NB4 cells = assay: Bcl-2 mRNA by quantitative TaqMan PCR; format: cell-based, human; details: 72 hrs
# Description: as §2
# U937 cells [2] = assay: Apoptotic sub-G1 cells; format: cell-based, human; details: 1 μM, 48 hrs
# Description: Cell kinetic and DNA fragmentation studies. The cell cycle kinetics was determined by staining cells with acridine orange for cellular DNA and RNA content followed by flow cytometeric analysis as described. Samples were measured in a FACScan flow cytometer (Becton Dickinson, San Jose, Calif.) using the 488-nm line of a […] argon laser and filter settings for green (530 nm) (DNA) and red (585 nm) (RNA) fluorescence. Ten thousand events were stored in list mode for analysis. The percentage of cells in the “sub G1 peak” defined the proportion of apoptotic cells in the tested populations. […] Cell-cycle kinetics was analyzed using ModFit software (Verity Software House, Inc., Topsham, Me.).
# U937 cells [3] = assay: Active caspase detection with Phi-Phi-Lux; format: cell-based, human; details: 1 μM, 6 hours
# Description: Detection of active caspases. The cell-permeable fluorogenic substrate Phi-Phi-Lux-G1D2 was administered to monitor caspase activity according to the manufacturer's recommendations (OncoImmunin, Inc, Kensington, Md.). Briefly, 10^6 cells were resuspended in 5 μL of substrate solution and incubated for 1 hour at 37° C. in the dark. After incubation, cells were washed, and the fluorescence emission was determined using the FL-1 channel of a Becton Dickinson FACScan flow cytometer.
# CDDO-Me. […] Effects of CDDO-Me on the cleavage of caspase-3 were analyzed utilizing the fluorogenic substrate of caspase-3 Phi-Phi-Lux.
# U937 cells [4] = assay: Mitochondrial membrane potential; format: cell-based, human
# Description: Cytofluorometric analysis of the Δψm. To evaluate the Δψm, cells were incubated with the cationic lipophilic dye […] (CMXRos; 150 nM; Molecular Probes, Inc., Eugene, Oreg.). CMXRos is incorporated into mitochondria driven by the […] and reacts with thiol residues to form covalent thiol ester bonds. CMXRos fluorescence was recorded by flow cytometry in the FL3 channel. Background values of the apoptosis of control cells cultured without the CDDO-Me or in DMSO-solvent control (<10% CMXRos-low) were subtracted from the values obtained under the experimental conditions.
# An early mitochondrial disruption has been observed in a number of different models of apoptosis. Changes in the cellular content of the cationic lipophilic fluorochrome CMXRos were determined by FACS analysis to measure loss of the mitochondrial membrane potential (Δψ) (Macho et al., 1996). […] Similarly, exposure of HL-60 to CDDO-Me (1 μM) for 2 and 4 hrs increased the number of cells with low JC-1 (57 and 60%) or CMXRos staining (46 and 57%), both assays measuring the decrease in Δψ. CDDO-Me-induced changes in the mitochondrial membrane potential of the cells preceded caspase activation and changes in the composition of the plasma membrane. […]
smiles,measurement,setting,value
"CC1(C)CCC2(C(=O)O)CCC3(C)C(C(=O)C=C4C5(C)C=C(C#N)C(=O)C(C)(C)C5CCC43C)C2C1 (stereo not shown) [CDDO, 2-cyano-3,12-dioxoolen-1,9-dien-28-oic acid]",annexin V-positive cells,"D9 cells, vector control; 3 μM (CDDO: 5 hrs)",47.0%
same,cell number,"D9 cells, vector control; 3 μM CDDO",did not change
same,annexin V positive cells,NB4 cells; 0.5 μM (11.4% in DMSO-controls),22.3%
same,apoptotic cells,NB4 cells; 1 μM,56.3%
same,decrease of Bcl-2 mRNA,[1],> 10 fold
same,decrease of Bcl-2 mRNA,Bcl-2 mRNA in NB4 cells,2 fold
same,apoptotic sub-G1 cells,U937 cells [2],69.4%
COC(=O)[C@]12CCC(C)(C)C[C@H]1[C@H]1C(=O)C=C3[C@@]4(C)C=C(C#N)C(=O)C(C)(C)[C@@H]4CC[C@@]3(C)[C@]1(C)CC2 [CDDO-Me],Phi-Phi-Lux positive/PI negative cells,U937 cells [3],67%
same,cells with decreased Δψ,U937 cells [4]; CDDO-Me alone,40%
same,cells with decreased Δψ,U937 cells [4]; after DEVD pretreatment,4%
